Results from PubChem BioAssay (NCI).
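Exposure lasted 48 hours, with cells grown in 96-well plates and compounds tested at five concentrations. GI50 = concentration required for 50% inhibition of growth. TGI denotes the concentration required for complete inhibition of growth.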

Legend:
Assay in all cases: NCI tumour cell line growth inhibition, 48 h
SK-MEL-28 melanoma = test system: SK-MEL-28 melanoma
CCRF-CEM leukemia = test system: CCRF-CEM leukemia
HOP-62 NSCLC = test system: HOP-62 NSCLC
IGROV1 ovarian = test system: IGROV1 ovarian
SR leukemia = test system: SR leukemia
U251 CNS = test system: U251 CNS
OVCAR-3 ovarian = test system: OVCAR-3 ovarian
COLO 205 colon = test system: COLO 205 colon
OVCAR-5 ovarian = test system: OVCAR-5 ovarian
786-0 renal = test system: 786-0 renal
HT29 colon = test system: HT29 colon
NCI-H23 lung = test system: NCI-H23 lung
OVCAR-4 ovarian = test system: OVCAR-4 ovarian
RXF 393 renal = test system: RXF 393 renal
RPMI-8226 leukemia = test system: RPMI-8226 leukemia
HOP-92 NSCLC = test system: HOP-92 NSCLC
MDA-MB-435 = test system: MDA-MB-435
TK-10 renal = test system: TK-10 renal
KM12 colon = test system: KM12 colon
SF-268 CNS = test system: SF-268 CNS
HCC-2998 colon = test system: HCC-2998 colon
HCT-116 colon = test system: HCT-116 colon
NCI-H460 lung = test system: NCI-H460 lung
MDA-MB-231 breast = test system: MDA-MB-231 breast
T-47D breast = test system: T-47D breast
UACC-62 melanoma = test system: UACC-62 melanoma
UACC-257 melanoma = test system: UACC-257 melanoma
HL-60(TB) leukemia = test system: HL-60(TB) leukemia
MCF7 breast = test system: MCF7 breast
EKVX NSCLC = test system: EKVX NSCLC
HCT-15 colon = test system: HCT-15 colon
SF-539 CNS = test system: SF-539 CNS
HS 578T breast = test system: HS 578T breast
A498 renal = test system: A498 renal
OVCAR-8 ovarian = test system: OVCAR-8 ovarian
SK-MEL-2 melanoma = test system: SK-MEL-2 melanoma
BT-549 breast = test system: BT-549 breast
SF-295 CNS = test system: SF-295 CNS
LOX IMVI melanoma = test system: LOX IMVI melanoma
NCI/ADR-RES ovarian = test system: NCI/ADR-RES ovarian
SN12C renal = test system: SN12C renal
M14 melanoma = test system: M14 melanoma
SNB-75 CNS = test system: SNB-75 CNS
UO-31 renal = test system: UO-31 renal
NCI-H522 lung = test system: NCI-H522 lung
SK-OV-3 ovarian = test system: SK-OV-3 ovarian
SW-620 colon = test system: SW-620 colon
MOLT-4 leukemia = test system: MOLT-4 leukemia
DU-145 prostate = test system: DU-145 prostate
PC-3 prostate = test system: PC-3 prostate
CAKI-1 renal = test system: CAKI-1 renal
NCI-H226 lung = test system: NCI-H226 lung
A549 NSCLC = test system: A549 NSCLC
SNB-19 CNS = test system: SNB-19 CNS
ACHN renal = test system: ACHN renal
SK-MEL-5 melanoma = test system: SK-MEL-5 melanoma
K-562 leukemia = test system: K-562 leukemia

Compound `CCN(CC)c1ccc(C2=NN(C(C)=O)C(c3cc(OC)c(OC)c(OC)c3)C2)cc1` (centres undefined) has a GI50 (SK-MEL-28 melanoma) of 0.819 µM, a TGI (SK-MEL-28 melanoma) of 19.1 µM and a GI50 (CCRF-CEM leukemia) of 0.304 µM. The TGI (CCRF-CEM leukemia) was 1.42 µM, the GI50 (HOP-62 NSCLC) was 3.96 µM and the TGI (HOP-62 NSCLC) was 24.2 µM. For the same compound, the GI50 (IGROV1 ovarian) was 0.769 µM, the TGI (IGROV1 ovarian) was 33.6 µM and the GI50 (SR leukemia) was 0.0708 µM. It also gave a TGI (SR leukemia) of 0.685 µM, a GI50 (U251 CNS) of 0.406 µM and a TGI (U251 CNS) of 11.5 µM. For the same compound, the GI50 (OVCAR-3 ovarian) was 0.36 µM, the TGI (OVCAR-3 ovarian) was 11 µM and the GI50 (COLO 205 colon) was 0.307 µM. For the same compound, the TGI (COLO 205 colon) was 1.16 µM, the GI50 (OVCAR-5 ovarian) was 1.45 µM and the TGI (OVCAR-5 ovarian) was 15.3 µM. The GI50 (786-0 renal) was 0.491 µM, the TGI (786-0 renal) was 13.3 µM and the GI50 (HT29 colon) was 0.354 µM. The TGI (HT29 colon) was 1.68 µM, the GI50 (NCI-H23 lung) was 0.87 µM and the TGI (NCI-H23 lung) was 17.4 µM. The GI50 (OVCAR-4 ovarian) was 0.583 µM, the TGI (OVCAR-4 ovarian) was 29.2 µM and the GI50 (RXF 393 renal) was 0.38 µM. It also gave a TGI (RXF 393 renal) of 2.43 µM, a GI50 (RPMI-8226 leukemia) of 0.18 µM and a TGI (RPMI-8226 leukemia) of 0.579 µM. The GI50 (HOP-92 NSCLC) was 1.82 µM, the TGI (HOP-92 NSCLC) was 20.3 µM and the GI50 (MDA-MB-435) was 0.166 µM. It also gave a TGI (MDA-MB-435) of 0.363 µM, a GI50 (TK-10 renal) of 0.549 µM and a TGI (TK-10 renal) of 17 µM. For the same compound, the GI50 (KM12 colon) was 0.349 µM, the TGI (KM12 colon) was 12.1 µM and the GI50 (SF-268 CNS) was 0.867 µM. For the same compound, the TGI (SF-268 CNS) was 20.9 µM, the GI50 (HCC-2998 colon) was 1.05 µM and the TGI (HCC-2998 colon) was 8.04 µM. The GI50 (HCT-116 colon) was 0.349 µM, the TGI (HCT-116 colon) was 13 µM and the GI50 (NCI-H460 lung) was 0.371 µM. The TGI (NCI-H460 lung) was 4.71 µM, the GI50 (MDA-MB-231 breast) was 1.24 µM and the TGI (MDA-MB-231 breast) was 6.9 µM. It also gave a GI50 (T-47D breast) of 0.511 µM, a TGI (T-47D breast) of 22.6 µM and a GI50 (UACC-62 melanoma) of 0.308 µM. The TGI (UACC-62 melanoma) was 13.6 µM, the GI50 (UACC-257 melanoma) was 16 µM and the TGI (UACC-257 melanoma) was 39.8 µM. The GI50 (HL-60(TB) leukemia) was 0.209 µM, the TGI (HL-60(TB) leukemia) was 0.541 µM and the GI50 (MCF7 breast) was 0.317 µM. The TGI (MCF7 breast) was 11.4 µM, the GI50 (EKVX NSCLC) was 0.6 µM and the TGI (EKVX NSCLC) was 11 µM. The GI50 (HCT-15 colon) was 0.441 µM, the TGI (HCT-15 colon) was 12.1 µM and the GI50 (SF-539 CNS) was 0.283 µM. For the same compound, the TGI (SF-539 CNS) was 1.16 µM, the GI50 (HS 578T breast) was 0.348 µM and the TGI (HS 578T breast) was 26.6 µM. For the same compound, the GI50 (A498 renal) was 0.344 µM, the TGI (A498 renal) was 4.13 µM and the GI50 (OVCAR-8 ovarian) was 0.795 µM. The TGI (OVCAR-8 ovarian) was 11.9 µM, the GI50 (SK-MEL-2 melanoma) was 2.37 µM and the TGI (SK-MEL-2 melanoma) was 26.1 µM. It also gave a GI50 (BT-549 breast) of 0.667 µM, a TGI (BT-549 breast) of 7.9 µM and a GI50 (SF-295 CNS) of 0.258 µM. It also gave a TGI (SF-295 CNS) of 1.46 µM, a GI50 (LOX IMVI melanoma) of 0.568 µM and a TGI (LOX IMVI melanoma) of 16 µM. The GI50 (NCI/ADR-RES ovarian) was 0.247 µM, the TGI (NCI/ADR-RES ovarian) was 0.81 µM and the GI50 (SN12C renal) was 1.15 µM. For the same compound, the TGI (SN12C renal) was 16.2 µM, the GI50 (M14 melanoma) was 0.418 µM and the TGI (M14 melanoma) was 6.07 µM. It also gave a GI50 (SNB-75 CNS) of 0.233 µM, a TGI (SNB-75 CNS) of 3.59 µM and a GI50 (UO-31 renal) of 1.13 µM. It also gave a TGI (UO-31 renal) of 21 µM, a GI50 (NCI-H522 lung) of 0.307 µM and a TGI (NCI-H522 lung) of 2.84 µM. The GI50 (SK-OV-3 ovarian) was 0.41 µM, the TGI (SK-OV-3 ovarian) was 10.6 µM and the GI50 (SW-620 colon) was 0.368 µM. For the same compound, the TGI (SW-620 colon) was 14.4 µM, the GI50 (MOLT-4 leukemia) was 0.341 µM and the TGI (MOLT-4 leukemia) was 3.57 µM. For the same compound, the GI50 (DU-145 prostate) was 0.399 µM, the TGI (DU-145 prostate) was 2.28 µM and the GI50 (PC-3 prostate) was 0.339 µM. For the same compound, the TGI (PC-3 prostate) was 12.2 µM, the GI50 (CAKI-1 renal) was 0.134 µM and the TGI (CAKI-1 renal) was 21 µM. For the same compound, the GI50 (NCI-H226 lung) was 1.74 µM, the TGI (NCI-H226 lung) was 11.8 µM and the GI50 (A549 NSCLC) was 0.89 µM. It also gave a TGI (A549 NSCLC) of 22.5 µM, a GI50 (SNB-19 CNS) of 0.476 µM and a TGI (SNB-19 CNS) of 13.3 µM. It also gave a GI50 (ACHN renal) of 0.563 µM, a TGI (ACHN renal) of 23 µM and a GI50 (SK-MEL-5 melanoma) of 0.378 µM. It also gave a TGI (SK-MEL-5 melanoma) of 5.05 µM, a GI50 (K-562 leukemia) of 0.689 µM and a TGI (K-562 leukemia) of over 100 µM.
